From patent publication US12721838B2 (Henry Ford Health System, priority 2020, dated 2026)
“Also recorded” adds a separate entry of the source. Where two headings read alike, the source gives them in different places. Where a SMILES comes first, the peptide text is derived from it. The star is where a group is joined. Cbz = O=C(OCc1ccccc1)*; CH2F = FC*

Legend:
[1] = biological target: T1, Trib2-Luciferase (Luc-Trib2) fusion (Homo sapiens, UniProt Q92519); settings: for inhibition of Trib2-luciferase activity (in words): HFF-Trib2-Luc cells
T1 sequence (Q92519 with tags, fused parts or gaps): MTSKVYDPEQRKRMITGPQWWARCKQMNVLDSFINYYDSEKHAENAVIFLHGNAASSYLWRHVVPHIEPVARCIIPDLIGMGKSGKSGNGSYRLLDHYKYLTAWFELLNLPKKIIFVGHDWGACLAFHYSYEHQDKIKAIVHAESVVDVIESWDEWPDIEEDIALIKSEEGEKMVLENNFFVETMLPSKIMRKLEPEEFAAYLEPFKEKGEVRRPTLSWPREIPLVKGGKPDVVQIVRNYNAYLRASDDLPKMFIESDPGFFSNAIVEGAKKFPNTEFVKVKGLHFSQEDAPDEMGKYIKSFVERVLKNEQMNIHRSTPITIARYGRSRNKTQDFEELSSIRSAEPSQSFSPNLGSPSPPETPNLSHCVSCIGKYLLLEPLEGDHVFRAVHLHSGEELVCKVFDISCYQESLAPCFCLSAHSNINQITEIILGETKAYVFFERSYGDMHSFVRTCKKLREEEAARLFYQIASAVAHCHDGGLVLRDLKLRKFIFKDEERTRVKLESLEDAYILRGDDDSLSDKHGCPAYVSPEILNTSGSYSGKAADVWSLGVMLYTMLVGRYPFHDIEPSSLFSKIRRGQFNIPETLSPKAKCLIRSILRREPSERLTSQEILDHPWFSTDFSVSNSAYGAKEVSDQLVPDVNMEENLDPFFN

[2] = biological target: T1, Trib2-Luciferase (Luc-Trib2) fusion; assay: cell-based; settings: HFF, read-out: Luciferase activity (%)
[3] = test system: LNCaP-ENR cells; assay: MTS/PES cell viability assay, ERPC cells; type: cell-based, human; settings: LNCaP-ENR cells, varying doses, 72 hours, MTS/PES; listed as ledipasvir
Procedure: Plates were incubated for 72 hours at 37° C. in a CO2 incubator. Cell viability was measured by MTS/PES cell titer assay (Promega Corp., Madison, WI).

[4] = test system: LNCaP-ENR cells; assay: Soft-agar colony formation assay; type: cell-based, human; settings: LNCaP-ENR (ERPC) cells, three weeks; DCV at 8 μM
Procedure: Effect of DCV on soft-agar colony formation was also analyzed. LNCaP-ENR cells (10,000 per well in 6-well plates) were plated in 0.3% soft-agar on top of a base layer of 0.6% agar. The cells were treated with DCV and incubated at 37° C. for three weeks in the CO2 incubator. Cells were given fresh media and drug every fourth day. At the end of the incubation period, colonies were stained with 0.025% crystal violet, and pictures of colonies were taken with a Nikon digital camera at ×200. Image processing was done using Q-Capture Pro-7 software. Exemplary methods of the foregoing technique can be found in Sarveswaran, Sivalokanathan et al. “Inhibition of 5-lipoxygenase downregulates stemness and kills prostate cancer stem cells by triggering apoptosis via activation of c-Jun N-terminal kinase.” Oncotarget vol. 10, 4 424-436. 11 Jan. 2019, the disclosure of which is incorporated herein by reference in its entirety.

[5] = test system: LNCaP-ENR and MR49F ERPC cells; assay: In vitro invasion through extracellular matrix; type: cell-based, human; settings: LNCaP-ENR and MR49F ERPC cells (data not shown)
[6] = test system: LNCaP-ENR cells; assay: Apoptosis by Annexin V binding, flow cytometry; type: cell-based, human
Procedure: To test DCV effects on cancer cell apoptosis, LNCaP-ENR cells were treated with 8 μM DCV for 24 hours and analyzed by flow cytometry. Treatment with DCV indicated increased Annexin V binding, a read-out for apoptosis (FIG. 3C).

[7] = biological target: T2, TRIB2 (Homo sapiens, UniProt Q92519); assay: Western blot of TRIB2 protein levels in cancer cells; type: cell-based; set-up: Whole cell lysate proteins were analyzed by Western blot; endogenous in cells; host or cells: LNCaP-ENR (enzalutamide-resistant LNCaP) cells; settings: LNCaP-ENR cells, 10 μM, 24 hours, Western blot
T2 sequence (Q92519 1-343): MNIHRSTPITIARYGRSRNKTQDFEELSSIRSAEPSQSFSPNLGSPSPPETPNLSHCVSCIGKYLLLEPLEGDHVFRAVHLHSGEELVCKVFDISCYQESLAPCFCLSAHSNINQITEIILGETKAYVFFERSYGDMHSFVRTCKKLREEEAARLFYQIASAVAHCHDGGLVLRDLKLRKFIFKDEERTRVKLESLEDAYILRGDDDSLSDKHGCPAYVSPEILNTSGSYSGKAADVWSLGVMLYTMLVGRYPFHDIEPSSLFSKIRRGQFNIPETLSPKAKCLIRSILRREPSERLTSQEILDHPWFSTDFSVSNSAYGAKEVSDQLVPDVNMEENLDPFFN
Procedure: Enzalutamide-resistant prostate cancer (ERPC) cells (LNCaP-ENR cells) were plated and treated with 10 μM each of various compounds for 24 hours. Exemplary methods for developing and using LNCaP-ENR cells is disclosed in Monga, J., Subramani, D., Bharathan, A., and Ghosh, J. (2020) “Pharmacological and genetic targeting of 5-lipoxygenase interrupts c-Myc oncogenic signaling and kills enzalutamide-resistant prostate cancer cells via apoptosis.” Scientific Reports 10: 6649, the disclosure of which is incorporated herein by reference in its entirety. Whole cell lysate proteins were analyzed by Western blot. TRIB2 antibody was used to detect protein levels of TRIB2 and GAPDH was used as loading control. Monoclonal anti-Trib2 antibody was purchased from Santa Cruz Biotech, Santa Cruz, CA.
LNCaP-ENR cells were treated with varying doses (4 μM, 8 μM, or 12 μM) of DCV for 24 hours. Effects on TRIB2 protein levels and its downstream targets (e.g., pAkt, Bcl-xL, Survivin, and FOXO3) were analyzed by Western blot. GAPDH was used as loading control. Protein levels of TRIB2, pAKT (S473), Bcl-xL, and Survivin were reduced in cells treated with 12 μM of DCV compared to control-treated cells (FIG. 3A). Levels of FOXO3 protein were increased at 12 μM of DCV treatment compared to control treatment. This was expected, as FOXO3 level is known to be decreased by Trib2. These effects on cellular protein levels were DCV concentration-dependent, with the most pronounced effects observed at the highest concentration tested (12 μM).

[8] = test system: Trib2-OE cells; assay: Enzalutamide sensitivity of Trib2-overexpressing prostate cancer cells; type: cell-based, human; settings: clinically relevant doses
Description: Prostate cancer cells were transfected with full length human gene to overexpress Trib2 (FIG. 18). […] Trib2 siRNA was used in parallel experiments as a positive control.

[9] = 10 μM, 24 hours, Trib2-Luciferase fusion construct-transfected HFF cells, […]

Row | Compound | activity at 10 µM [2] [%] | also measured
1 | Nc1ccc(O)c(C(=O)O)c1 [5-Aminosalicyclic acid] | – | Luciferase activity (%) [1, 9]: 84%
2 | CC(=O)NCCCCCC(=O)O [6-Acetamidohexanoic] | – | Luciferase activity (%) [1, 9]: 100%
3 | CC[C@H]1[C@@H]2C[C@H]3[C@@H]4N(C)c5ccccc5[C@]45C[C@@H]([C@@H]2[C@H]5O)N3[C@@H]1O [Ajamaline] | – | Luciferase activity (%) ([1]; 10 µM): 93%
4 | CC(C)CN(C[C@@H](O)[C@H](Cc1ccccc1)NC(=O)O[C@H]1CO[C@H]2OCC[C@H]21)S(=O)(=O)c1ccc(N)cc1 [Darunavir] | 93 | inhibition of Trib2-luciferase activity (in words) ([1]; 10 μM, 24 hours): completely ineffective; also recorded: not effective
5 | NS(=O)(=O)c1cc(Cl)c(Cl)c(S(N)(=O)=O)c1 [Dichlorphrnamide] | – | Luciferase activity (%) ([1]; 10 µM): 100%
6 | C[C@@H]1CCO[C@H]2Cn3cc(C(=O)NCc4ccc(F)cc4F)c(=O)c(O)c3C(=O)N12 [Dolutegravir] | 100 | inhibition of Trib2-luciferase activity (in words) ([1]; 10 μM, 24 hours): completely ineffective; also recorded: not effective
7 | COC(=O)N[C@H](C(=O)N1CC2(CC2)C[C@H]1c1nc(-c2ccc3c(c2)C(F)(F)c2cc(-c4ccc5[nH]c([C@@H]6[C@H]7CC[C@H](C7)N6C(=O)[C@@H](NC(=O)OC)C(C)C)nc5c4)ccc2-3)c[nH]1)C(C)C [Ledipasvir] | 100 | Cell viability [3]: not; soft-agar colony formation [4]: completely ineffective; in vitro invasion through extracellular matrix [5]: completely ineffective; signs of apoptotic features ([6]; ERPC cells): did not show any signs of apoptotic features; inhibition of Trib2-luciferase activity (in words) ([1]; 10 μM, 24 hours): completely ineffective; inhibition of Trib2-luciferase activity (in words) ([1]; 10 μM, 24 hours, listed as ledipasvir): no inhibition; also recorded: not effective; TRIB2 protein levels [7]: neither downregulates TRIB2
8 | Nc1nc2c(ncn2CCC(CO)CO)c(=O)[nH]1 [Penciclovir] | 97 | inhibition of Trib2-luciferase activity (in words) ([1]; 10 μM, 24 hours): not effective
9 | COC(=O)[C@H]1[C@H]2C[C@@H]3c4[nH]c5cc(OC)ccc5c4CCN3C[C@H]2C[C@@H](OC(=O)c2cc(OC)c(OC)c(OC)c2)[C@@H]1OC [Resperine] | – | Luciferase activity (%) ([1]; 10 µM): 91%
10 | OB1OCc2cc(F)ccc21 [Tavaborole] | 75 | –
11 | O=c1[nH]c(=O)n(C2CCCO2)cc1F (stereo not drawn) [Tegafur] | 100 | –
12 | Cc1cn([C@@H]2C[C@@H](O)[C@H](CO)O2)c(=O)[nH]c1=O [Telbivudine] | 91 | –
13 | CCOC(=O)[C@@H](N)Cc1ccc(-c2cc(O[C@H](c3ccc(Cl)cc3-n3ccc(C)n3)C(F)(F)F)nc(N)n2)cc1 [Telotristat etiprate] | 94 | –
14 | COc1cc([C@@H]2c3cc4c(cc3[C@@H](O[C@@H]3O[C@@H]5CO[C@@H](c6cccs6)O[C@H]5[C@H](O)[C@H]3O)[C@H]3COC(=O)[C@H]23)OCO4)cc(OC)c1O [Teniposide] | 70 | –
15 | CC(C)N1CCN(c2ccc(OCC3COC(Cn4cncn4)(c4ccc(Cl)cc4Cl)O3)cc2)CC1 (stereo not drawn) [Terconazole] | 82 | –
16 | CC1(C)S[C@@H]2[C@H](NC(=O)[C@H](C(=O)O)c3ccsc3)C(=O)N2[C@H]1C(=O)O [Ticarcillin] | 87 | –
17 | CN(C)c1cc(NC(=O)CNC(C)(C)C)c(O)c2c1C[C@H]1C[C@H]3[C@H](N(C)C)C(O)=C(C(N)=O)C(=O)[C@@]3(O)C(O)=C1C2=O [Tigecycline] | 63 | –
18 | C[C@]12C=CC(=O)C=C1CC[C@H]1[C@@H]3C[C@@H](O)[C@](O)(C(=O)CO)[C@@]3(C)C[C@H](O)[C@@]12F [Triamcinolone] | 72 | –
19 | Nc1nc(N)c2nc(-c3ccccc3)c(N)nc2n1 [Triamterene] | 100 | –
20 | COc1ccc(CN2CCNCC2)c(OC)c1OC [Trimetazidine] | 100 | –
21 | CCCOc1ccc(S(=O)(=O)NCCC2CCCN2C)cc1-c1nc2c(CCC)nn(C)c2c(=O)[nH]1 (stereo not drawn) [Udenafil] | 100 | –
22 | C=C[C@]1(C)C[C@@H](OC(=O)CSC(C)(C)CNC(=O)[C@H](N)C(C)C)[C@]2(C)[C@H](C)CC[C@]3(CCC(=O)[C@H]32)[C@@H](C)[C@@H]1O [Valnemulin] | 83 | –
23 | CC1(C)CCC(CN2CCN(c3ccc(C(=O)NS(=O)(=O)c4ccc(NCC5CCOCC5)c([N+](=O)[O-])c4)c(Oc4cnc5[nH]ccc5c4)c3)CC2)=C(c2ccc(Cl)cc2)C1 [Venetoclax] | 184 | –
24 | CC[C@]12CCCN3CCc4c(n(c5ccccc45)[C@@](O)(C(=O)OC)C1)[C@@H]32 [Vincamine] | 80 | –
25 | CCOC(=O)N[C@@H]1CC[C@@H]2[C@@H](C1)C[C@H]1C(=O)O[C@H](C)[C@H]1[C@H]2/C=C/c1ccc(-c2cccc(F)c2)cn1 [Vorapaxar] | 59 | –
26 | COC(=O)C[C@H](NC(=O)[C@H](C)NC(=O)[C@@H](NC(=O)OCc1ccccc1)C(C)C)C(=O)CF [Z-VAD-FMK] (Cbz-Val-Ala-Asp(OMe)-CH2F) | – | DCV treatment-induced apoptosis after pretreatment with caspase inhibitor ([6]; ERPC cells pretreated): inhibited
27 | CNC(=O)c1ccc(N2C(=S)N(c3ccc(C#N)c(C(F)(F)F)c3)C(=O)C2(C)C)cc1F [enzalutamide] | – | response of Trib2-OE cells to enzalutamide [8]: completely resistant
28 | Niraparib tosylate | – | Luciferase activity (%) ([1]; 10 µM): 93%
29 | Temsirolmus | – | Luciferase activity (%) ([1]; 10 µM): 94%
